Data from BindingDB's records for doi:10.1021/bi7018282 (Cornell University, 2008).

Biological target: T1, Thiamine-binding periplasmic protein (Escherichia coli (strain K12), UniProt P31550)
T1 sequence (P31550 whole entry): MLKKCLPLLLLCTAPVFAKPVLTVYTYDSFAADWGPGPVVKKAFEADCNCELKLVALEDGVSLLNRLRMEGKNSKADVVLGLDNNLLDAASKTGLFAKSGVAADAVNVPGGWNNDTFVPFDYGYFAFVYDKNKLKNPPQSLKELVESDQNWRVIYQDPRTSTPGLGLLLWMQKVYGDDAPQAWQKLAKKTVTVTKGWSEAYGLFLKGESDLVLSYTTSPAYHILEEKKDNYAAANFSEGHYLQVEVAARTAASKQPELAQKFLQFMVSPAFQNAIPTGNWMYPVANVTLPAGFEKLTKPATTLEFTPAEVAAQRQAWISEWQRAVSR
Assay: Titration Assay
Procedure: the kd for ThOH, ThMP and ThDP were determined using titration experiments in which the change in the intrinsic protein fluorescence was monitored as a function of ligand concentration.

Row | Structure (SMILES) | Kd [nM]
1 | Cc1ncc(C[n+]2csc(CCO[P@](=O)(O)OP(=O)(O)O)c2C)c(N)n1 [ThDP] | 7.4
2 | Cc1ncc(C[n+]2csc(CCO)c2C)c(N)n1 [Vitamin B 1] | 3.8
